Reference: patent US20140275063A1, “NEW ENZYME INHIBITOR COMPOUNDS” (PROXIMAGEN LIMITED, priority 2011, published 2014)
Where a name gives a salt, the structure may show the parent alone.

target: T1, human SSAO (Homo sapiens, UniProt Q16853); test: SSAO inhibitory activity (HRP-coupled hydrogen peroxide detection or 14C-benzaldehyde detection, benzylamine substrate); assay type: biochemical; details: purified recombinantly expressed human SSAO, benzylamine as substrate, RT
T1 construct: made in house
T1 sequence (Q16853 29-763 limits assumed): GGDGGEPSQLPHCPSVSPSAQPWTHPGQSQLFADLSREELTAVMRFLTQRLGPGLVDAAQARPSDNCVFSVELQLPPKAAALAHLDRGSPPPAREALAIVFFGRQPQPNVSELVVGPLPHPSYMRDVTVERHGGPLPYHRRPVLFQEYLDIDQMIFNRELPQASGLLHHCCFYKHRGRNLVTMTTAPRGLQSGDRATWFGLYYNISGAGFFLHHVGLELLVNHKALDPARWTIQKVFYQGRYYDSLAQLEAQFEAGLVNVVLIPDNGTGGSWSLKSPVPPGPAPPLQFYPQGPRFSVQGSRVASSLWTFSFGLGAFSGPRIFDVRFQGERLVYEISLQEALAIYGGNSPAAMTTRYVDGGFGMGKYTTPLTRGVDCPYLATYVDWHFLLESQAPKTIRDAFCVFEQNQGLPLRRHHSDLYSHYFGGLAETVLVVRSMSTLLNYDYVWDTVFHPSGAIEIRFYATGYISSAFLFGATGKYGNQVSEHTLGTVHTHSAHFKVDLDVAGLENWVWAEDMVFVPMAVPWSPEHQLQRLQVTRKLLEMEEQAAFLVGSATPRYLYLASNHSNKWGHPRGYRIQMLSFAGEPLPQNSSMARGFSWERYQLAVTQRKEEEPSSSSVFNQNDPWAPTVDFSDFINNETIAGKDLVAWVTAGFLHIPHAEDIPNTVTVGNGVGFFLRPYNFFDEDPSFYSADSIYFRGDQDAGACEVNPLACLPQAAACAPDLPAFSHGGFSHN
Procedure: All primary assays were performed at RT. with purified recombinantly expressed human SSAO. Enzyme was prepared essentially as described in Öhman et al. (Protein Expression and Purification 46 (2006) 321-331). In addition, secondary- and selectivity assays were performed using SSAO prepared from various tissues or purified rat recombinant SSAO. The enzyme activity was assayed with benzylamine as substrate by measuring either benzaldehyde production, using ^14C-labeled substrate, or by utilizing the production of hydrogen peroxide in a horseradish peroxidase (HRP) coupled reaction. Briefly, test compounds were dissolved in dimethyl sulfoxide (DMSO) to a concentration of 10 mM. Dose-response measurements were assayed by either creating 1:10 serial dilutions in DMSO to produce a 7 point curve or by making 1:3 serial dilutions in DMSO to produce 11 point curves. The top concentrations were adjusted depending on the potency of the compounds and subsequent dilution in reaction buffer yielded a final DMSO concentration ≦2%.
In a horseradish peroxidase (HRP) coupled reaction, hydrogen peroxide oxidation of 10-acetyl-3,7-dihydroxyphenoxazine produced resorufin, which is a highly fluorescent compound (Zhout and Panchuk-Voloshina. Analytical Biochemistry 253 (1997) 169-174; Amplex® Red Hydrogen Peroxideperoxidase Assay kit, Invitrogen A22188). Enzyme and compounds in 50 mM sodium phosphate, pH 7.4 were set to pre-incubate in flat-bottomed microtiter plates for approximately 15 minutes before initiating the reaction by addition of a mixture of HRP, benzylamine and Amplex reagent. Benzylamine concentration was fixed at a concentration corresponding to the Michaelis constant, determined using standard procedures. Fluorescence intensity was then measured at several time points during 1-2 hours, exciting at 544 nm and reading the emission at 590 nm. For the human SSAO assay final concentrations of the reagents in the assay wells were: SSAO enzyme 1 μg/ml, benzylamine 100 μM, Amplex reagent 20 μM, HRP 0.1 U/mL and varying concentrations of test compound. The inhibition was measured as % decrease of the signal compared to a control without inhibitor (only diluted DMSO). The background signal from a sample containing no SSAO enzyme was subtracted from all data points. Data was fitted to a four parameter logistic model and IC50 values were calculated using the Graph Pad Prism 4 or XLfit 4 programs.
SSAO activity was assayed using 14C-labeled benzylamine and analysed by measuring radioactive benzaldehyde. In a white 96-well optiplate (Packard), 20 μL of diluted test compound was pre-incubated at RT. with 20 μL SSAO enzyme for approximately 15 minutes with continuous agitation. All dilutions were made with PBS. The reaction was initiated by adding 20 μL of the benzylamine substrate solution containing [7-14C] Benzylamine hydrochloride (CFA589, GE Healthcare). The plate was incubated for 1 hour as above after which the reaction was stopped by acidification (10 μL 1 M HCl). Then 90 μL Micro Scint-E solution (Perkin-Elmer) was added to each well and the plate was continuously mixed for 15 minutes. Phase separation occurred instantly and activity was read in a Topcount scintillation counter (Perkin-Elmer). In the final reaction well, the human recombinant SSAO concentration was 10 μg/ml. In order to optimize sensitivity, the substrate concentration was decreased as compared to the HRP coupled assay in order to get a higher fraction of radioactive product. In the human SSAO assay, benzylamine concentration was 40 μM (0.2 μCi/mL). Data was analysed as above.

Compound	IC50 [nM]
O=C(NCCCN1CCOCC1)N1CCC(c2cn(-c3ccc(Cl)cc3)c3cnccc23)CC1 [Compound 26, 4-(1-(4-Chlorophenyl)-1H-pyrrolo[2,3-c]pyridin-3-yl]-N-[3-(morpholin-4-yl)propyl] piperidine-1-carboxamide]	< 100
Cc1ccc(-n2nc(N3CCOC(COCCN)C3)c3ccncc32)cc1 (stereo not drawn) [Compound 32, 2-({4-[1-(4-Methylphenyl)-1H-pyrazolo[3,4-c]pyridin-3-yl]morpholin-2-yl}methoxy)ethan-1-amine]	100 to 500
Cc1ccc(-n2nc(N3CCOC(CNCCN)C3)c3ccncc32)cc1 (stereo not drawn) [Compound 33, (2-Aminoethyl)({4-[1-(4-methylphenyl)-1H-pyrazolo[3,4-c]pyridin-3-yl]morpholin-2-yl}methyl)amine trihydrochloride]	100 to 500
Cc1ccc(-n2nc(N3CCOC(CN4CCOCC4)C3)c3ccncc32)cc1 (stereo not drawn) [Compound 34, 4-[1-(4-Methylphenyl)-1H-pyrazolo[3,4-c]pyridin-3-yl]-2-(morpholin-4-ylmethyl)morpholine]	100 to 500
CN1CCN(CC2CN(c3nn(-c4ccc(Cl)cc4)c4cnccc34)CCO2)CC1 (stereo not drawn) [Compound 35, 4-[1-(4-Chlorophenyl)-1H-pyrazolo[3,4-c]pyridin-3-yl]-2-[(4-methylpiperazin-1-yl)methyl]morpholine]	100 to 500
NCCCOC(=O)N1CCN(CC2CN(c3nn(-c4ccc(Cl)cc4)c4cnccc34)CCO2)CC1 (stereo not drawn) [Compound 37, 3-Aminopropyl 4-({4-[1-(4-chlorophenyl)-1H-pyrazolo[3,4-c]pyridin-3-yl]morpholin-2-yl}methyl)piperazine-1-carboxylate trihydrochloride]	100 to 500
NCCCNC(=O)N1CCN(CC2CN(c3nn(-c4ccc(Cl)cc4)c4cnccc34)CCO2)CC1 (stereo not drawn) [Compound 38, N-(3-Aminopropyl)-4-({4-[1-(4-chlorophenyl)-1H-pyrazolo[3,4-c]pyridin-3-yl]morpholin-2-yl}methyl)piperazine-1-carboxamide tri hydrochloride]	100 to 500
CCNC(=O)N1CCN(CC2CN(c3nn(-c4ccc(Cl)cc4)c4cnccc34)CCO2)CC1 (stereo not drawn) [Compound 39, 4-({4-[1-(4-Chlorophenyl)-1H-pyrazolo[3,4-c]pyridin-3-yl]morpholin-2-yl}methyl)-N-ethylpiperazine-1-carboxamide]	100 to 500
Clc1ccc(-n2nc(N3CCOCC3CN3CCOCC3)c3ccncc32)cc1 (stereo not drawn) [Compound 41, 4-[1-(4-Chlorophenyl)-1H-pyrazolo[3,4-c]pyridin-3-yl]-3-(morpholin-4-ylmethyl)morpholine]	100 to 500
CN1CCC(CNC(=O)C2CCCCN2c2nn(-c3ccc(Cl)cc3)c3cnccc23)CC1 (stereo not drawn) [Compound 43, 1-[1-(4-Chlorophenyl)-1H-pyrazolo[3,4-c]pyridin-3-yl]-N-[(1-methylpiperidin-4-yl)methyl]piperidine-2-carboxamide]	100 to 500
Clc1ccc(-n2nc(NCCN3CCOCC3)c3ccncc32)cc1 [Compound 44, 1-(4-Chlorophenyl)-N-[2-(morpholin-4-yl)ethyl]-1H-pyrazolo[3,4-c]pyridin-3-amine]	500 to 2500
Clc1ccc(-n2nc(NCCN3CCNCC3)c3ccncc32)cc1 [Compound 45, 1-(4-Chlorophenyl)-N-[2-(piperazin-1-yl)ethyl]-1H-pyrazolo[3,4-c]pyridin-3-amine]	100 to 500
CN1CCN(CCNc2nn(-c3ccc(Cl)cc3)c3cnccc23)CC1 [Compound 46, 1-(4-Chlorophenyl)-N-[2-(4-methylpiperazin-1-yl)ethyl]-1H-pyrazolo[3,4-c]pyridin-3-amine]	100 to 500
O=C(NCC1CCNCC1)C1CCN(c2nn(-c3ccc(Cl)cc3)c3cnccc23)CC1 [Compound 47, 1-[1-(4-Chlorophenyl)-1H-pyrazolo[3,4-c]pyridin-3-yl]-N-(piperidin-4-ylmethyl)piperidine-4-carboxamide dihydrochloride]	100 to 500

Further lines, results first:

IC50 [nM]	Compound
< 100	CN1CCC(CCNC(=O)N2CCC(c3cn(-c4ccc(Cl)cc4)c4cnccc34)CC2)CC1 [Compound 24, 4-[1-(4-Chlorophenyl)-1H-pyrrolo[2,3-c]pyridin-3-yl]-N-[2-(1-methylpiperidin-4-yl)ethyl] piperidine-1-carboxamide]
< 100	CN1CCN(CCNC(=O)N2CCC(c3cn(-c4ccc(Cl)cc4)c4cnccc34)CC2)CC1 [Compound 25, 4-[1-(4-Chlorophenyl)-1H-pyrrolo[2,3-c]pyridin-3-yl]-N-[2-(4-methylpiperazin-1-yl)ethyl] piperidine-1-carboxamide]
< 100	CC(C)N1CCC(CNC(=O)N2CCC(c3cn(-c4ccc(Cl)cc4)c4cnccc34)CC2)CC1 [Compound 27, 4-[1-(4-Chlorophenyl)-1H-pyrrolo[2,3-c]pyridin-3-yl]-N-{[1-(propan-2-yl)piperidin-4-yl]methyl}piperidine-1-carboxamide; formic acid]
< 100	COCCN1CCC(CNC(=O)N2CCC(c3cn(-c4ccc(Cl)cc4)c4cnccc34)CC2)CC1 [Compound 28, 4-[1-(4-Chlorophenyl)-1H-pyrrolo[2,3-c]pyridin-3-yl]-N-{[1-(2-methoxyethyl)piperidin-4-yl]methyl}piperidine-1-carboxamide; formic acid]
< 100	CC(=O)NCCCNC(=O)N1CCC(c2cn(-c3ccc(Cl)cc3)c3cnccc23)CC1 [Compound 29, N-[3-({4-[1-(4-Chlorophenyl)-1H-pyrrolo[2,3-c]pyridin-3-yl]piperidin-1-yl}carbonylamino)propyl]acetamide]
< 100	Cc1ccc(-n2nc(N3CCOC(CNC(=O)OC(C)C)C3)c3ccncc32)cc1 (stereo not drawn) [Compound 30, Propan-2-yl N-({4-[1-(4-methylphenyl)-1H-pyrazolo[3,4-c]pyridin-3-yl]morpholin-2-yl}methyl)carbamate]
< 100	Cc1ccc(-n2nc(N3CCOC(CNC(=O)NC4CC4)C3)c3ccncc32)cc1 (stereo not drawn) [Compound 31, 3-Cyclopropyl-1-({4-[1-(4-methylphenyl)-1H-pyrazolo[3,4-c]pyridin-3-yl]morpholin-2-yl}methyl)urea]
< 100	Clc1ccc(-n2nc(N3CCOC(CN4CCNCC4)C3)c3ccncc32)cc1 (stereo not drawn) [Compound 36, 4-[1-(4-Chlorophenyl)-1H-pyrazolo[3,4-c]pyridin-3-yl]-2-(piperazin-1-ylmethyl) morpholine trihydrochloride]
< 100	COC(=O)CC1COCCN1c1nn(-c2ccc(Cl)cc2)c2cnccc12 (stereo not drawn) [Compound 40, Methyl 2-{4-[1-(4-chlorophenyl)-1H-pyrazolo[3,4-c]pyridin-3-yl]morpholin-3-yl}acetate]
< 100	CN1CCN(CCC2COCCN2c2nn(-c3ccc(Cl)cc3)c3cnccc23)CC1 (stereo not drawn) [Compound 42, 4-[1-(4-Chlorophenyl)-1H-pyrazolo[3,4-c]pyridin-3-yl]-3-[2-(4-methylpiperazin-1-yl)ethyl]morpholine]
